Measurements taken from patent EP0539588A1, “AMINE DERIVATIVE” (NIPPON SODA CO., LTD., priority 1990, dated 1992).
Like-named read-outs stand apart in the source and are kept apart here.

Legend:
[1] = system: Cotton aphids; assay: Efficacy against cotton aphids (spray on cucumber leaves); format: in vivo; conditions: for mortality at 125 ppm: 168 h, read-out: Control E fficacy (7 days later) 125ppm
Experimental: Test Example 1: Efficacy against cotton aphids
Cotton aphids were inoculated at the rate of 30-50 aphids per plot on 10 days old cucumber leaves grown in 10 cm pot by using small brush respectively. The aphids injured during inoculation were eliminated after one day, then the compound solution adjusted to 125 ppm concentration by dilution emulsifiable concentrate according to the recipe of the Example 6 with water was sprayed thereto. The aphids were allowed to stand in incubator maintained at 25 °C and 65% R.H., then counted the number of living aphids after 7 days whereby the control ratio was determined in comparison with the untreated plot.

[2] = system: resistant-strain of planthoppers for organophosphate and carbamate insecticides; assay: Efficacy against planthoppers (rice seedling dip); format: in vivo; conditions: Oryza sativa, 120 h, read-out: Mortality (5days later) 125 ppm
Source text: Test Example 2: Efficacy against planthoppers
Young seedlings of rice plant at the stage of 7 days after germination were dipped for 30 seconds in the compound solution of the emulsifiable concentrate according to the recipe of Example 6 adjusted to 125 ppm concentration by diluting with water. After seedlings were dried, they were put into the inside of test tubes and 10 third instar larva of resistant-strain of planthoppers for organophosphate and carbamate insecticides were respectively inoculated in each test tube. The test tubes were shielded with gauze and allowed to stand in the incubator maintained at 25°C and 65% R.H., then the percentage killed were counted after 5 days.

[3] = 125 ppm spray of emulsifiable concentrate (Example 6) on cucumber leaves, living aphids counted after 7 days, compared with the untreated plot, 25 °C, 65% R.H.
[4] = rice seedlings dipped 30 seconds in 125 ppm solution, 10 third instar larva per test tube, percentage killed after 5 days, 25°C, 65% R.H.

Row | Compound | mortality at 125 ppm [2, 4] [%] | mortality at 125 ppm [1, 3] [%] | further results
1 | Cc1nc(N(C)C)nc(OC(=O)N(C)C)c1C [Comparative Compound A, Pyrimicarb, reference compound] | – | – | Control E fficacy (7 days later) 125ppm [1, 3]: 0%
2 | CCOC(=O)CC(SP(=S)(OC)OC)C(=O)OCC (stereo not shown) [Comparative Compound B, Malathion, reference compound] | – | – | mortality at 125 ppm [2]: 0%
3 | O=C1C=C(NCc2ccc(Cl)nc2)CCC1 [Compound No. 1, 1-(2-chloro-5-pyridylmethylamino)-1-cyclohexene-3-on] | – | – | mortality at 125 ppm [1]: 100%; mortality at 125 ppm [2]: 100%
4 | Cn1c(NCc2ccc(Cl)nc2)cc(=O)n(C)c1=O [Compound No. 70, 4-(2-chloro-5-pyridylmethylamino)-1,3-dimethyluracil] | 100 | – | –
5 | Cn1c(NCc2ccc(Cl)nc2)c([N+](=O)[O-])c(=O)n(C)c1=O [Compound No. 71, 4-(2-chloro-5-pyridylmethylamino)-1,3-dimethyl-5-nitrouracil] | 100 | – | –
6 | Cc1cc(NCc2ccc(Cl)nc2)cc(=O)o1 [Compound No. 77, 4-(2-chloro-5-pyridylmethylamino)-6-methylpyran-2-on] | – | – | mortality at 125 ppm [2]: 100%
7 | O=C1CCCC(NCc2ccc(Cl)nc2)=C1Cl [compound 23] | 100 | – | –
8 | CC1CCC(NCc2ccc(Cl)nc2)=CC1=O (stereo not shown) [compound 29] | 100 | 100 | –
9 | CC1(C)CCC(NCc2ccc(Cl)nc2)=CC1=O [compound 30] | 100 | – | –
10 | CSC1CCC(NCc2ccc(Cl)nc2)=CC1=O (stereo not shown) [compound 31] | 100 | 100 | –
11 | CC1CC(=O)C=C(NCc2ccc(Cl)nc2)C1 (stereo not shown) [compound 34] | 100 | – | –
12 | CSC1CCC(N(C)Cc2ccc(Cl)nc2)=CC1=O (stereo not shown) [compound 42] | 100 | – | –
13 | O=C1C=C(NCc2cnc(Cl)s2)CCC1 [compound 59] | 100 | 100 | –
14 | CN(Cc1cnc(Cl)s1)C1=CC(=O)CCC1 [compound 60] | 100 | 100 | –
15 | Cc1cc(NCc2ccc(Cl)nc2)c([N+](=O)[O-])c(=O)n1C [compound 69] | 100 | – | –
16 | CN1C(=O)C([N+](=O)[O-])=C(NCc2ccc(Cl)nc2)N(C)S1(=O)=O [compound 73] | 100 | – | –
17 | O=C1C=C(NCc2ccc(Cl)nc2)CCO1 [compound 74] | 100 | 100 | –
18 | CC1CC(NCc2ccc(Cl)nc2)=CC(=O)O1 (stereo not shown) [compound 75] | 100 | 100 | –
19 | O=C1C=C(NCc2ccc(Cl)nc2)CSC1 [compound 80] | 100 | – | –
20 | CN(Cc1ccc(Cl)nc1)C1=CC(=O)OCC1 [compound 82] | 100 | 100 | –
21 | O=C1C=C(NCc2ccc(Cl)nc2)CO1 [compound 83] | 100 | 100 | –

Row | Compound | mortality at 125 ppm [2, 4] [%] | mortality at 125 ppm [1, 3] [%] | further results
22 | CN(Cc1ccc(Cl)nc1)C1=CC(=O)OC1 [compound 84] | 100 | 100 | –
23 | CCN(Cc1ccc(Cl)nc1)C1=CC(=O)OC1 [compound 85] | 100 | 100 | –
24 | CCCN(Cc1ccc(Cl)nc1)C1=CC(=O)OC1 [compound 86] | 100 | 100 | –
25 | O=C1C=C(N(Cc2ccc(Cl)nc2)C2CC2)CO1 [compound 88] | 100 | 100 | –
26 | CC(C)CN(Cc1ccc(Cl)nc1)C1=CC(=O)OC1 [compound 89] | 100 | 100 | –
27 | C=CCN(Cc1ccc(Cl)nc1)C1=CC(=O)OC1 [compound 91] | 100 | 100 | –
28 | O=C1C=C(N(Cc2ccc(Cl)nc2)C(=O)C2CC2)CO1 [compound 96] | 100 | – | –
29 | CON(Cc1ccc(Cl)nc1)C1=CC(=O)OC1 [compound 98] | 100 | 100 | –
30 | O=C1OCC(NCc2ccc(Cl)nc2)=C1Br [compound 103] | 100 | 100 | –
31 | CN(Cc1ccc(Cl)nc1)C1=C(F)C(=O)OC1 [compound 104] | 100 | 100 | –
32 | O=C1OCC(N(Cc2ccc(Cl)nc2)C2CC2)=C1F [compound 105] | 100 | 100 | –
33 | O=C1C=C(NCc2ccc(Cl)nc2)CS1 [compound 111] | 100 | 100 | –
34 | CN(Cc1ccc(Cl)nc1)C1=CC(=O)SC1 [compound 112] | 100 | 100 | –
35 | CC1OC(=O)C=C1NCc1ccc(Cl)nc1 (stereo not shown) [compound 116] | 100 | 100 | –
36 | CC1OC(=O)C=C1N(C)Cc1ccc(Cl)nc1 (stereo not shown) [compound 117] | 100 | 100 | –
37 | O=C1C=C(NCc2cnc(Cl)s2)CO1 [compound 143] | 100 | 100 | –
38 | CN(Cc1cnc(Cl)s1)C1=CC(=O)OC1 [compound 144] | 100 | 100 | –
39 | CN1CC(NCc2ccc(Cl)nc2)=CC1=O [compound 161] | 100 | – | –
40 | CN(Cc1ccc(Cl)nc1)C1=CC(=O)CC1 [compound 175] | 100 | 100 | –
41 | CC1=C(N(C)Cc2ccc(Cl)nc2)CCC1=O [compound 187] | 100 | – | –
